The supplement of paper PMC10307832

Tests used:
Experiment in all cases: relative viability (nuclei count vs DMSO), 5 days (fraction); higher = more cells survive
NCI-H358 = test system: NCI-H358
Outline: (§1)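 Lung cancer cell lines, seeded in 1536-well plates, were treated the following day by pin tool with a single drug or with five library-drug doses (not always all listed) in √10 steps on top of a fixed anchor-drug dose. Cells were fixed and nuclei stained in one step after 5 days, and nuclei were counted. Relative viability is the nuclei count for treated wells divided by that for vehicle wells, reported as medians of duplicate plates.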

NCI-H441 = test system: NCI-H441
Outline: as §1

NCI-H460 = test system: NCI-H460
Outline: as §1

NCI-H520 = test system: NCI-H520
Outline: as §1

NCI-H522 = test system: NCI-H522
Outline: as §1

NCI-H596 = test system: NCI-H596
Outline: as §1

NCI-H647 = test system: NCI-H647
Outline: as §1

NCI-H661 = test system: NCI-H661
Outline: as §1

NCI-H838 = test system: NCI-H838
Outline: as §1

PC-3 [JPC-3] = test system: PC-3 [JPC-3]
Outline: as §1

SK-LU-1 = test system: SK-LU-1
Outline: as §1

SMILES: CCNC(=O)c1noc(-c2cc(C(C)C)c(O)cc2O)c1-c1ccc(CN2CCOCC2)cc1 [Luminespib] + Nc1nc2[nH]cc(CCc3ccc(C(=O)N[C@@H](CCC(=O)O)C(=O)O)cc3)c2c(=O)[nH]1 [Pemetrexed] (partner 0.2 µM)
- relative viability (NCI-H358; first compound 0.002 µM): 0.186
- relative viability (NCI-H358; first compound 0.006325 µM): 0.16
- relative viability (NCI-H358; first compound 0.02 µM): 0.167
- relative viability (NCI-H358; first compound 0.06325 µM): 0.147
- relative viability (NCI-H358; first compound 0.2 µM): 0.078
- relative viability (NCI-H441; first compound 0.002 µM): 0.263
- relative viability (NCI-H441; first compound 0.006325 µM): 0.309
- relative viability (NCI-H441; first compound 0.02 µM): 0.248
- relative viability (NCI-H441; first compound 0.06325 µM): 0.153
- relative viability (NCI-H441; first compound 0.2 µM): 0.116
- relative viability (NCI-H460; first compound 0.002 µM): 0.0608
- relative viability (NCI-H460; first compound 0.006325 µM): 0.0558
- relative viability (NCI-H460; first compound 0.02 µM): 0.0687
- relative viability (NCI-H460; first compound 0.06325 µM): 0.0359
- relative viability (NCI-H460; first compound 0.2 µM): 0.0287
- relative viability (NCI-H520; first compound 0.002 µM): 0.691
- relative viability (NCI-H520; first compound 0.006325 µM): 0.699
- relative viability (NCI-H520; first compound 0.02 µM): 0.792
- relative viability (NCI-H520; first compound 0.06325 µM): 0.135
- relative viability (NCI-H520; first compound 0.2 µM): 0.13
- relative viability (NCI-H522; first compound 0.002 µM): 1.01
- relative viability (NCI-H522; first compound 0.006325 µM): 0.974
- relative viability (NCI-H522; first compound 0.02 µM): 0.855
- relative viability (NCI-H522; first compound 0.06325 µM): 0.675
- relative viability (NCI-H522; first compound 0.2 µM): 0.353
- relative viability (NCI-H596; first compound 0.002 µM): 0.526
- relative viability (NCI-H596; first compound 0.006325 µM): 0.493
- relative viability (NCI-H596; first compound 0.02 µM): 0.548
- relative viability (NCI-H596; first compound 0.06325 µM): 0.518
- relative viability (NCI-H596; first compound 0.2 µM): 0.528
- relative viability (NCI-H647; first compound 0.002 µM): 0.202
- relative viability (NCI-H647; first compound 0.006325 µM): 0.189
- relative viability (NCI-H647; first compound 0.02 µM): 0.193
- relative viability (NCI-H647; first compound 0.06325 µM): 0.106
- relative viability (NCI-H647; first compound 0.2 µM): 0.0832
- relative viability (NCI-H661; first compound 0.002 µM): 0.921
- relative viability (NCI-H661; first compound 0.006325 µM): 0.863
- relative viability (NCI-H661; first compound 0.02 µM): 0.966
- relative viability (NCI-H661; first compound 0.06325 µM): 0.651
- relative viability (NCI-H661; first compound 0.2 µM): 0.318
- relative viability (NCI-H838; first compound 0.002 µM): 0.265
- relative viability (NCI-H838; first compound 0.006325 µM): 0.256
- relative viability (NCI-H838; first compound 0.02 µM): 0.284
- relative viability (NCI-H838; first compound 0.06325 µM): 0.141
- relative viability (NCI-H838; first compound 0.2 µM): 0.177
- relative viability (PC-3 [JPC-3]; first compound 0.002 µM): 0.706
- relative viability (PC-3 [JPC-3]; first compound 0.006325 µM): 0.342
- relative viability (PC-3 [JPC-3]; first compound 0.02 µM): 0.681
- relative viability (PC-3 [JPC-3]; first compound 0.06325 µM): 0.357
- relative viability (PC-3 [JPC-3]; first compound 0.2 µM): 0.272
- relative viability (SK-LU-1; first compound 0.002 µM): 1.01
- relative viability (SK-LU-1; first compound 0.006325 µM): 0.779
- relative viability (SK-LU-1; first compound 0.02 µM): 0.825
- relative viability (SK-LU-1; first compound 0.06325 µM): 0.244
- relative viability (SK-LU-1; first compound 0.2 µM): 0.206
